From patent publication US20260009085A1, “METHODS AND COMPOSITIONS FOR THE DIAGNOSIS AND TREATMENT OF CANCER” (Chengdu Anticancer Bioscience, Ltd., priority 2023, published 2026)

Tests used:
[1] = tested on: RPE-NEO; assay: Model cell screen: CPPC complex localization and cell death, RPE-NEO; assay type: cell-based, human
Method: In the model screening cell lines, there was an indistinguishable threshold concentration of approximately 20 nM, which was required to show disruption of the CPPC complex by IHC at the spindle midzone and equatorial cortex of anaphase cells, indicating a failure in CPPC relocation. This similarity in the threshold effective concentration for target inhibition is, therefore, not influenced by overexpression of MYC. […] Similar data with other MYC-SL compounds were observed.

[2] = tested on: panel of 98 human cancer cell lines; assay: Concentration-response in panel of 98 human cancer cell lines with MYC/MKLP2 biomarker statistical analysis (AUC, EC50, IC50, Emax, h); assay type: cell-based
Method: For passaging of cell lines prior to a […] (MTT) assay, cells were routinely split when reaching mid-log phase and not allowed to progress to confluence. For the determination of cytotoxicity, cells were plated in 96-well plates at 4,000 cells per well in a volume of 100 μL and cultivated for 15 to 24 hours to reach 20-30% confluence. Cells on the plate were then exposed in triplicate to test compounds at concentrations ranging from 0.06 nM to 10 μM by using 3-fold serial dilutions or a concentration range from 5 nM to 10 μM using 2-fold serial dilutions. Cells exposed to vehicle (0.1% DMSO) were used as a negative control. Three days after initiation of the treatment, 20 μL of MTT (stock solution 5 mg/mL) was added to each well before incubation at 37° C. for another 3-4 hours. The medium was then aspirated with a microplate washer (BioTek ELX50) before 50 μL of DMSO was added to each well. After incubation with shaking for 10 minutes, the 96-well plate was analyzed with a microplate reader (BioTek ELX808iu) at a wavelength of 570 nm. The relative cell number was calculated as (A570^Compound/A570^DMSO)×100%. […] Statistical analysis was performed in GraphPad Prism 8.0.2. Error bars were presented as mean±1 standard deviation.
The CellTiter-Glo® (CTG) assay determines levels of ATP, and therefore the metabolic health of cell grown in culture. […] Wells containing medium without cells were used as a baseline control to obtain a value for background luminescence. […] 150 μL of the mixture was transferred to a white 96-well microplate (Falcon, Cat. #353296) and the luminescence signal was recorded by a microplate reader (Tecan Spark).
To develop a comparative metric reflecting the level of MYC and/or MKLP2 in a given cell line, the signal intensity of the MYC and MKLP2 protein bands from immunoblot analysis were normalized to the intensity of the housekeeping protein β-ACTIN. […] Whole cell MYC and MKLP2 proteins were quantified in a panel of 98 human cancer cell lines, see Table 4, below. […]

[3] = tested on: Calu6 tumor model; assay: Calu6 xenograft tumor model (tumor growth, body weight, tumor weight, Ki-67); assay type: in vivo; settings: Calu6 xenografted mice
Method: Xenografted mice were treated with novel antimitotic compounds LXY013, LW33R, and LG157, respectively (FIG. 4A). p-values in FIG. 4A are from Logrank analysis. Tumor growth curves and body weight over the course of the experiments are depicted with vehicle control in black, test compounds in gray (n=6). FIG. 4B is a set of images of tumors and a graph depicting tumor weight at an end-point of 20 days. FIG. 4C is a set of photomicrographs of immunohistochemistry analyses and its quantification, respectively, of Ki-67 expression in xenografts. For LG157, * is p<0.05. p-values in FIG. 4B and FIG. 4C are from multi-parametric analysis. **** is p<0.0001.
Additionally, the volume and weight of tumors in response to the compounds described herein were assessed (FIG. 4A-4B) as well as immunohistochemistry analyses and quantification of Ki-67 expression in xenografts (FIG. 4C).

## CNC(=O)c1cc(OC)cc(Oc2ncccc2-c2ccnc(C)c2)c1 [LG157]
[1]
  cell death: not RPE-NEO cells
[1]; IHC at spindle midzone and equatorial cortex of anaphase cells
  threshold concentration required to show disruption of the CPPC complex: approximately 20 nM
[2]; 89 of the 98 cell lines
  association of oncogenic alterations (TP53, RB, PTEN, RAS, BRAF, PI3K) with response: no evidence was found that these alterations were associated with either sensitivity or resistance
[2]; 98 cell lines
  relation of MKLP2 protein level to response: lower protein levels of MKLP2, but not high, predicted a favorable response
  relation of MYC abundance to sensitivity: the abundance of MYC in the human cancer cell lines positively relates to sensitivity
[3]
  tumor growth: inhibition of tumor growth
